Assay results: ChEMBL document CHEMBL5325477, “Biological Function of Pin1 in Vivo and Its Inhibitors for Preclinical Study: Early Development, Current Strategies, and Future Directions” (J Med Chem, 2023)
One block for each compound: values may come before it. *1 amine or outer side, *2 acyl side, *3 side chain or, on linkers, in order; H or OH if unused. Where a SMILES comes first, the peptide text is derived from it. [ ]: non-standard residue; d: D form. The star is where a group is joined. Biotin = O=C1N[C@H]2[C@H](CS[C@H]2CCCCC(=O)*)N1; X2 = CC(OP(=O)(O)O)[C@H](N[*:1])C(=O)[*:2]; Bip = N[C@@H](Cc1ccc(-c2ccccc2)cc1)C(=O)O; 1Nal = N[C@@H](Cc1cccc2ccccc12)C(=O)O; Bta = N[C@@H](Cc1csc2ccccc12)C(=O)O; 2Thi = N[C@@H](Cc1cccs1)C(=O)O; Pip = O=C(O)[C@@H]1CCCCN1; Abu = CC[C@H](N)C(=O)O

Experiments:
[1] = biological target: T1, Peptidyl-prolyl cis-trans isomerase NIMA-interacting 1 (Homo sapiens, UniProt Q13526); test: Inhibition of Pin1 (unknown origin)
[2] = biological target: T1, Peptidyl-prolyl cis-trans isomerase NIMA-interacting 1; test: Inhibition of Gst-tagged human Pin1 assessed as inhibition constant by Western blot analysis
[3] = biological target: T1, Peptidyl-prolyl cis-trans isomerase NIMA-interacting 1; test: Inhibition of human Pin1 assessed as inhibition constant
MDA-MB-231 = test: Anticancer activity against human MDA-MB-231 cells assessed as cell growth inhibition measured after 48 hrs by cell count reagent SF based assay; type: functional; settings: MDA-MB-231, 48 h
[4] = biological target: T1, Peptidyl-prolyl cis-trans isomerase NIMA-interacting 1; test: Inhibition of Pin1 (unknown origin) using Suc-Ala-Glu-Pro-Phe-pNA as substrate by spectrofluorometry assay
[5] = biological target: T1, Peptidyl-prolyl cis-trans isomerase NIMA-interacting 1; test: Inhibition of full length human Pin1 expressed in Escherichia coli assessed as dissociation constant by fluorescence anisotropy binding assay
HeLa = test: Anticancer activity against human HeLa cells assessed as cell growth inhibition at 20 uM measured after 3 days relative to control by MTT assay; type: functional; settings: 72 h, time 3 day
[6] = biological target: T1, Peptidyl-prolyl cis-trans isomerase NIMA-interacting 1; test: Inhibition of Gst-tagged human Pin1 assessed as inactivation constant measured after 14 hrs by FP binding assay
[7] = biological target: T1, Peptidyl-prolyl cis-trans isomerase NIMA-interacting 1; test: Inhibition of Gst-tagged human Pin1 assessed as inhibition constant measured after 14 hrs by FP binding assay
[8] = biological target: T1, Peptidyl-prolyl cis-trans isomerase NIMA-interacting 1; test: Inhibition of human Pin1
[9] = Inhibition of human FKBP12 assessed as dissociation constant by Western blot analysis
[10] = biological target: T1, Peptidyl-prolyl cis-trans isomerase NIMA-interacting 1; test: Inhibition of Gst-tagged human Pin1 by Western blot analysis

T1 sequence (Q13526 whole entry): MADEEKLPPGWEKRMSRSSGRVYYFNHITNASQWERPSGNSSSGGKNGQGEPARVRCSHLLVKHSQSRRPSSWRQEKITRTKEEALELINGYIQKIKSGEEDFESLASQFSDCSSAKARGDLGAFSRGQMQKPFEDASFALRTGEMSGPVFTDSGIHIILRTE

SMILES: C=C(N)NCCC[C@H]1NC(=O)[C@H](CCC(N)=O)NC(=O)[C@H](CCCNC(=N)N)NC(=O)[C@H](Cc2ccc3ccccc3c2)NC(=O)[C@@H]2CCCCN2C(=O)[C@@H]([C@H](C)OP(=O)(O)O)NC(=O)[C@@H](CCCNC(=N)N)NC1=O
IC50 [1]: 220 nM

SMILES: CC(=O)N[C@@H](CCCCNC(=O)CCCC[C@@H]1SC[C@@H]2NC(=O)N[C@@H]21)C(=O)N[C@@H](C)C(=O)N[C@@H](C)C(=O)N[C@@H](Cc1csc2ccccc12)C(=O)N[C@H](C(=O)N1CCCC[C@H]1C(=O)N[C@@H](Cc1cccc2ccccc12)C(=O)N[C@@H](CCC(N)=O)C(N)=O)C(C)OP(=O)(O)O (some centres undefined) (Ac-K(Biotin)AA[Bta][X2][Pip][1Nal]Q-NH2)
Ki [2]: 1.2 nM

SMILES: CCOC(=O)C([Se]c1ccccc1)([Se]c1ccccc1)C(=O)OCC
IC50 (MDA-MB-231): 11000 nM
IC50 [4]: 440 nM

SMILES: C[C@@H]1NC(=O)c2cc3cc(c2)C(=O)NC[C@H](NC(=O)[C@@H](C)NC(=O)[C@@H](C)NC(=O)[C@H](CCCNC(=N)N)NC(=O)[C@H](Cc2ccc4ccccc4c2)NC(=O)[C@@H]2CCCCN2C(=O)[C@@H]([C@H](C)OP(=O)(O)O)NC(=O)CNC1=O)C(=O)N[C@@H](Cc1ccccc1)C(=O)N[C@@H](Cc1ccc2ccccc2c1)C(=O)N[C@@H](CCCNC(=N)N)C(=O)N[C@@H](CCCNC(=N)N)C(=O)N[C@@H](CCCNC(=N)N)C(=O)N[C@@H](CCCNC(=N)N)C(=O)N[C@H](C(N)=O)CNC3=O
Kd [5]: 72 nM
inhibition at 20 µM (HeLa): 45%

SMILES: Nc1nc(OCc2ccc(CNC(=O)C(F)(F)F)cc2)c2nc[nH]c2n1
IC50 [1]: 72.3 nM

SMILES: CO[C@H]1C[C@@H]2CC[C@@H](C)[C@@](O)(O2)C(=O)C(=O)N2CCCC[C@H]2C(=O)O[C@H]([C@H](C)C[C@@H]2CC[C@@H](O)[C@H](OC)C2)CC(=O)[C@H](C)/C=C(\C)[C@@H](O)[C@@H](OC)C(=O)[C@H](C)C[C@H](C)/C=C/C=C/C=C/1C [SIROLIMUS]
Kd [9]: 0.2 nM

SMILES: CC(=O)N[C@@H](CCCCNC(=O)CCCC[C@@H]1SC[C@@H]2NC(=O)N[C@@H]21)C(=O)N[C@@H](C)C(=O)N[C@@H](C)C(=O)N[C@@H](Cc1cccs1)C(=O)N[C@H](C(=O)N1CCC[C@H]1C(=O)N[C@@H](Cc1ccc(-c2ccccc2)cc1)C(=O)N[C@@H](CCC(N)=O)C(N)=O)C(C)OP(=O)(O)O (some centres undefined) (Ac-K(Biotin)AA[2Thi][X2]P[Bip]Q-NH2)
IC50 [10]: 22000 nM

SMILES: CCOC(=O)C([Se]c1ccccc1)C(=O)OCC
IC50 (MDA-MB-231): 21000 nM
IC50 [4]: 780 nM

Next, values leading:

Ki [2]: 507 nM
SMILES: C[C@H](N)C(=O)N[C@H](C(=O)N1CCCC[C@H]1C(=O)N[C@@H](Cc1ccc2ccccc2c1)C(=O)N[C@@H](CCC(N)=O)C(N)=O)[C@@H](C)OP(=O)(O)O

Ki [3]: 8700 nM
SMILES: COc1ccc(F)cc1C(=O)C1CCc2ccccc21 (centres undefined)

Ki [3]: 400 nM
SMILES: Nc1cc(F)cc(-c2ccc(O)c(C(=O)C3CCc4ccccc43)c2)c1O (centres undefined)

Ki [3]: 6200 nM
SMILES: COc1ccccc1C(=O)C1CCc2ccccc21 (centres undefined)

Ki [3]: 15000 nM
SMILES: O=C(c1cc(F)ccc1O)C1CCc2ccccc21 (centres undefined)

Kinact [6]: 0.3 10^-1/min
Ki [7]: 700 nM
SMILES: CC(C)(C)CN(C(=O)CCl)C1CCS(=O)(=O)C1 (centres undefined)

IC50 [8]: 12000 nM
SMILES: CC(=O)N[C@H](CN1CCC[C@H]1C(=O)NCCc1c[nH]c2ccccc12)OP(=O)(O)O

Ki [3]: 5100 nM
SMILES: O=C(c1ccccc1O)C1CCc2ccccc21 (centres undefined)

Ki [2]: 18.3 nM
SMILES: CC[C@H](NC(C)=O)C(=O)N[C@H](C(=O)N1CCCC[C@H]1C(=O)N[C@@H](Cc1cccc2ccccc12)C(=O)N[C@@H](CCC(N)=O)C(N)=O)C(C)OP(=O)(O)O (some centres undefined) (Ac-[Abu][X2][Pip][1Nal]Q-NH2)

Ki [3]: 500 nM
SMILES: O=C(c1cc(-c2cc(F)cc([N+](=O)[O-])c2O)ccc1O)C1CCc2ccccc21 (centres undefined)

Ki [3]: 4900 nM
SMILES: COc1ccc(F)cc1-c1cc(N)c(O)c(C(=O)C2CCc3ccccc32)c1 (centres undefined)

Ki [3]: 51000 nM
SMILES: COc1ccc(F)cc1C(=O)[C@@]1(C)CCc2ccccc21
